Data published in the supplement of paper PMC11451515.

Assays:
Experiment in all cases: AUC of viability dose-response curve (% viability x log10 dose units); higher = less sensitive
Conditions in all cases: 48 h
NOMO1 = test system: NOMO1
Outline: (§1)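 Viability of medium-adapted leukemia cells was measured by CellTiter-Glo One luminescence after 48 h at 37°C with library compounds in DMSO. Doses were 11 threefold steps from 47 μM to 0.79 nM, in 1536-well plates at 500 or 1000 cells/well. Signals were normalised per plate to DMSO and cell-free wells and fitted with a four-parameter log-logistic model on log10 dose. Area under the curve was integrated by trapezoidal rule, with curves exceeding full viability scaled and failed quality-control curves removed.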

P12-Ichikawa = test system: P12-Ichikawa
Outline: as §1

SEM cells = test system: SEM cells
Outline: as §1

[1] = RPMI 5 mM glucose + 10% dialyzed FBS

SMILES | AUC of viability dose-response curve (NOMO1; HPLM + 10% dialyzed FBS) | AUC of viability dose-response curve (NOMO1; RPMI 5 mM glucose + 10% FBS) | AUC of viability dose-response curve (NOMO1; [1]) | AUC of viability dose-response curve (P12-Ichikawa; HPLM + 10% dialyzed FBS) | AUC of viability dose-response curve (P12-Ichikawa; RPMI 5 mM glucose + 10% FBS) | AUC of viability dose-response curve (P12-Ichikawa; [1]) | AUC of viability dose-response curve (SEM cells; HPLM + 10% dialyzed FBS) | AUC of viability dose-response curve (SEM cells; RPMI 5 mM glucose + 10% FBS) | AUC of viability dose-response curve (SEM cells; [1])
CC(C)N(CCCNC(=O)Nc1ccc(C(C)(C)C)cc1)C[C@H]1O[C@@H](n2cc(Br)c3c(N)ncnc32)[C@H](O)[C@@H]1O | 433 | 397 | 398 | 409 | 405 | 395 | 433 | 434 | 397
COCCNCCCn1c(C(=O)CF)c(-c2ccc(C)cc2)c2c(N)ncnc21 | 470 | 417 | 453 | 456 | 445 | 448 | 438 | 367 | 410
COc1cc([S+](C)(=O)[O-])ccc1Nc1nc2ccc(-c3ccc(NC(=O)[C@H](C)c4ccc(F)cc4)cc3)cn2n1 | 430 | 439 | 436 | 396 | 386 | 394 | 377 | 369 | 384
Cc1nc(C(=O)NCC(=O)O)c(O)c2ccc(Oc3ccccc3)cc12 | 462 | 442 | 466 | 454 | 455 | 466 | 459 | 454 | 470
CC[C@@H](C)[C@H](NC(=O)[C@H](CC1CCCCC1)NC(=O)c1ccno1)C(=O)N1CCC2(CCc3ccccc32)CC1 | 399 | 385 | 385 | 418 | 394 | 388 | 382 | 381 | 449
CC/C(=C(\c1ccccc1)c1ccc(OCCN(C)C)cc1)c1ccccc1 | 457 | 458 | 450 | 472 | 461 | 465 | 434 | 425 | 435
CN1CCN(c2cc(C(=O)Nc3ccc4c(c3)-c3c(c(C(N)=O)nn3-c3ccc(F)cc3)CC4)c(Cl)cn2)CC1 | 442 | 449 | 451 | 448 | 453 | 451 | 444 | 360 | 449
CCc1nc(C(N)=O)c(Nc2ccc(N3CCC(N4CCN(C)CC4)CC3)c(OC)c2)nc1NC1CCOCC1 | 389 | 410 | 363 | 438 | 436 | 434 | 291 | 285 | 277
CC(=O)[C@H]1CC[C@H]2[C@@H]3C/C=C4/C[C@@H](O)CC[C@]4(C)[C@H]3CC[C@]12C | 463 | 472 | 462 | 462 | 461 | 463 | 455 | 470 | 460
c1cc(N[C@@H]2CCNC2)nc(-c2cnc3ccc(-c4cn[nH]c4)cn23)c1 | 460 | 467 | 436 | 471 | 457 | 437 | 386 | 399 | 367
COC1=CC=CC(=C1/C2=N/CC3=C(N=C(NC4=CC(=C(C=C4)C(O)=O)OC)N=C3)C5=CC=C(Cl)C=C25)F | 312 | 291 | 297 | 210 | 217 | 230 | 241 | 221 | 216
CCCCCCCN(CC)CCCC(O)c1ccc(NS(C)(=O)=O)cc1.CCCCCCCN(CC)CCCC(O)c1ccc(NS(C)(=O)=O)cc1.O=C(O)/C=C/C(=O)O (stereo not given) | 471 | 463 | 464 | 460 | 457 | 461 | 446 | 421 | 443
CC[P](CC)(CC)=[Au][S][C@@H]1O[C@H](COC(C)=O)[C@@H](OC(C)=O)[C@H](OC(C)=O)[C@H]1OC(C)=O | 357 | 344 | 354 | 375 | 339 | 331 | 327 | 336 | 315
N#C[C@@H]1C[C@@H]2C[C@@H]2N1C(=O)[C@@H](N)C12CC3CC(CC(O)(C3)C1)C2 | 400 | 466 | 450 | 462 | 433 | 451 | 465 | 426 | 455
CNC(=O)c1cc(COc2nnc(Nc3ccc(Cl)cc3)c3ccoc23)ccn1 | 449 | 446 | 452 | 440 | 458 | 440 | 452 | 446 | 436
CN1CCC(=C2c3ccccc3CCc3sccc32)CC1 | 460 | 477 | 466 | 472 | 471 | 465 | 453 | 459 | 464
Cc1ccc(C)c(OCCCC(C)(C)C(=O)O)c1 | 457 | 449 | 447 | 458 | 429 | 413 | 442 | 456 | 453
Cc1ccc([S+](=O)([O-])NC(=O)NN2CC3CCCC3C2)cc1 (stereo not given) | 433 | 436 | 439 | 388 | 378 | 371 | 369 | 334 | 337
NC(=O)c1c(OCc2c(F)cc(Br)cc2F)nsc1NC(=O)NCCCCN1CCCC1 | 370 | 450 | 421 | 430 | 445 | 436 | 415 | 397 | 435
Cc1nc(N)sc1-c1ccnc(Nc2ccc(N3CCOCC3)cc2)n1 | 447 | 447 | 432 | 389 | 392 | 399 | 382 | 368 | 359
CC1(C)NC(=O)N(c2ccc([N+](=O)[O-])c(C(F)(F)F)c2)C1=O | 439 | 431 | 407 | 424 | 410 | 371 | 404 | 454 | 461
COC1=CC(=C2C(=O)N(COC/3=C/C(=O)N4\C=C/C=C(OCCN5CCCCC5)\C4=N3)[S+]([O-])(=O)C2=C1)C(C)C | 460 | 463 | 471 | 477 | 460 | 470 | 476 | 452 | 436
CCN(CC)CCNC(=O)c1ccc2nc(-c3ccccc3)c(-c3ccc(CN4CCC(n5c(=O)[nH]c6ccccc65)CC4)cc3)nc2c1 | 354 | 400 | 399 | 355 | 380 | 358 | 246 | 221 | 243
O=C1CCc2cc(OCCCCc3nnnn3C3CCCCC3)ccc2N1 | 411 | 433 | 451 | 452 | 436 | 431 | 439 | 438 | 428
Cc1n[nH]c(C)c1Cc1sc2c(c1C(=O)N1C[C@H](O)CO1)c(=O)n(C)c(=O)n2CC(C)C | 456 | 476 | 468 | 416 | 410 | 417 | 366 | 408 | 444
CN1C(=O)C(=C/2N(C(=O)N(C3CC3)C(=O)C2=C1/NC4=CC=C(I)C=C4F)C5=CC=CC(=C5)NC(C)=O)\C | 249 | 255 | 255 | 354 | 340 | 355 | 325 | 323 | 318
Oc1ccc(-c2nc(-c3ccncc3)c(-c3ccc(F)cc3)[nH]2)cc1 | 366 | 412 | 420 | 388 | 427 | 410 | 289 | 251 | 247
Cc1cc(-c2ccc(CC(=O)Nc3ccc(-c4cccnc4)cc3)cc2)ccn1 | 380 | 420 | 413 | 439 | 447 | 438 | 392 | 418 | 413
CNCCN(C)Cc1c[nH]nc1-c1ccc(O[C@H]2C[C@H](OCCC3CCOCC3)C2)cc1 | 457 | 461 | 465 | 457 | 472 | 468 | 436 | 397 | 431
CC(C)(OCc1nn(Cc2ccccc2)c2ccccc12)C(=O)O | 460 | 442 | 467 | 473 | 459 | 427 | 475 | 471 | 477
